Experimental data taken from US20120214862A1, “MODULATION OF FACTOR 7 EXPRESSION” (ISIS Pharmaceuticals, Inc., priority 2009, published 2012).
In the oligonucleotide strings, read from the 5' end, every base follows the letter of its sugar. An asterisk marks phosphorothioate; unmarked linkages are phosphodiester. Other units and linkages are bracketed, terminal groups are in braces. A string of capitals states the bases alone. e = 2'-O-(2-methoxyethyl) (MOE); [5mC] = 5-methylcytosine; d = 2'-deoxy (DNA)

Each substance was assayed on human Factor 7 mRNA (assay: Antisense inhibition of human Factor 7 mRNA in HepB3 cells, lipofectin, 50 nM, real-time RT-PCR). Details: Example 1; HepB3 cells, lipofectin, 50 nM, ~24 h, relative to untreated control cells.
Assay type: cell-based
How it was run: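 Percent inhibition of Factor 7 mRNA, relative to untreated control, comes from real-time RT-PCR with RIBOGREEN normalization, using primer probe set RTS 2927 in some runs. RNA was taken roughly 24 h after lipofectin delivery of 50 nM oligonucleotide into HepB3 cells.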

First: 407645 (antisense eG*eA*eG*eA*eG*d[5mC]*dT*dA*dA*dA*d[5mC]*dA*dA*d[5mC]*d[5mC]*eG*e[5mC]*e[5mC]*eT*eT) [compound 407645]
Second: 407621 (antisense eA*e[5mC]*eA*eA*e[5mC]*dA*dG*dG*dA*d[5mC]*d[5mC]*dT*dG*d[5mC]*d[5mC]*eA*eT*eG*eG*eA) [compound 407621]
The “% Inhibition (human Factor 7 mRNA)” value of the first is higher: 65% for the first, 62% for the second.

Compared with “407632 (antisense eT*e[5mC]*e[5mC]*eG*eT*dT*d[5mC]*dG*dG*dG*d[5mC]*dA*dG*dG*d[5mC]*eA*eG*eA*eG*eG) [compound 407632]”, “407635 (antisense eT*eG*eG*e[5mC]*e[5mC]*d[5mC]*d[5mC]*dA*dG*d[5mC]*dT*dG*dA*d[5mC]*dG*eA*eT*eG*e[5mC]*e[5mC]) [compound 407635]” is higher in “% Inhibition (human Factor 7 mRNA)” value: 46% for the first, 64% for the second.

First: 407890 (antisense e[5mC]*eA*eG*eG*eG*dA*dG*d[5mC]*d[5mC]*d[5mC]*dG*dG*d[5mC]*d[5mC]*dG*e[5mC]*eA*eG*e[5mC]*eT) [compound 407890]
Second: 407637 (antisense eG*eT*eA*e[5mC]*eT*dG*dG*dG*dA*dG*dA*d[5mC]*d[5mC]*d[5mC]*dT*eG*eG*eT*eG*eT) [compound 407637]
The “% Inhibition (human Factor 7 mRNA)” value of the first is lower: 60% for the first, 71% for the second.

Compared with “407653 (antisense eA*eA*eT*eA*eT*d[5mC]*dA*dT*dT*dG*dA*d[5mC]*dA*dA*dG*eG*eG*e[5mC]*eT*eG) [compound 407653]”, “407655 (antisense eA*eG*eA*eG*eT*dG*d[5mC]*dA*dG*d[5mC]*dT*dT*dG*d[5mC]*d[5mC]*eA*eG*eG*eT*e[5mC]) [compound 407655]” is higher in “% Inhibition (human Factor 7 mRNA)” value: 21% for the first, 28% for the second.

Going from “407886 (antisense eG*e[5mC]*eA*eG*eA*dG*dG*dA*dG*d[5mC]*d[5mC]*dT*dG*dA*dG*eG*eG*e[5mC]*e[5mC]*eT) [compound 407886]” to “407951 (antisense eA*eA*e[5mC]*eA*eG*d[5mC]*dT*dT*dT*dT*dG*dT*dT*dT*dT*eT*eA*eA*eA*eA) [compound 407951]”, the “% Inhibition (human Factor 7 mRNA)” value falls from 72% to 0%.

First: 407647 (antisense eG*e[5mC]*eA*eG*e[5mC]*d[5mC]*dG*dT*dT*dT*dA*dT*dT*dG*dT*eG*eA*eA*eG*e[5mC]) [compound 407647]
Second: 407613 (antisense eT*eG*e[5mC]*eT*e[5mC]*dA*d[5mC]*dA*dG*d[5mC]*d[5mC]*dG*d[5mC]*d[5mC]*dG*eT*eT*e[5mC]*eT*e[5mC]) [compound 407613]
The “% Inhibition (human Factor 7 mRNA)” value of the first is higher: 83% for the first, 66% for the second.

In the case of “407958 (antisense eG*e[5mC]*e[5mC]*eG*eT*dG*d[5mC]*dT*dT*dG*d[5mC]*d[5mC]*dG*dG*dA*eG*eT*e[5mC]*eT*eG) [compound 407958]”, the “% Inhibition (human Factor 7 mRNA)” value is reported as 58%.

Same assay, conditions: Example 6 microwalk, nucleobases 15098 to 15122 of SEQ ID NO: 1; HepB3, lipofectin, 50 nM, ~24 h

For “422134 (antisense eG*e[5mC]*eA*e[5mC]*eA*d[5mC]*dA*dT*dG*dG*dA*dG*dT*d[5mC]*dA*eG*e[5mC]*eA*eT*e[5mC]) [compound 422134]”, the “% Inhibition (human Factor 7 mRNA)” value was 67%.

Same assay, conditions: HepB3 cells, lipofectin, 50 nM antisense oligonucleotide, approximately 24 hours, primer probe set RTS 2927, relative to untreated control

Going from “416557 (antisense eT*e[5mC]*e[5mC]*e[5mC]*eA*dG*dG*d[5mC]*dA*dA*dA*dG*d[5mC]*dT*dG*e[5mC]*eT*e[5mC]*eA*eG) [compound 416557]” to “416554 (antisense eA*eA*eA*eG*eA*dT*d[5mC]*d[5mC]*d[5mC]*dA*d[5mC]*d[5mC]*dT*d[5mC]*dA*eA*eA*eG*eA*eG) [compound 416554]”, the “% Inhibition of human Factor 7 mRNA levels” value falls from 56% to 7%.

First: 416466 (antisense eT*eG*eT*eG*eG*dG*d[5mC]*d[5mC]*dT*d[5mC]*d[5mC]*dA*d[5mC]*dT*dG*eT*e[5mC]*e[5mC]*e[5mC]*e[5mC]) [compound 416466]
Second: 416489 (antisense eG*eT*eG*e[5mC]*eA*dG*d[5mC]*dT*dT*dG*d[5mC]*d[5mC]*dA*dG*dG*eT*e[5mC]*e[5mC]*eT*e[5mC]) [compound 416489]
The “% Inhibition of human Factor 7 mRNA levels” value of the first is higher: 57% for the first, 38% for the second.

First: 416471 (antisense eT*eG*eA*eG*e[5mC]*dT*dT*dT*dT*dG*d[5mC]*dA*dG*d[5mC]*d[5mC]*eA*e[5mC]*eT*e[5mC]*eG) [compound 416471]
Second: 416432 (antisense eA*eG*e[5mC]*eA*e[5mC]*dT*dG*d[5mC]*dT*d[5mC]*d[5mC]*dT*d[5mC]*d[5mC]*dT*eT*eG*e[5mC]*eA*e[5mC]) [compound 416432]
The “% Inhibition of human Factor 7 mRNA levels” value of the first is higher: 62% for the first, 44% for the second.

Compared with “416474 (antisense eT*eG*eT*e[5mC]*eT*dG*d[5mC]*d[5mC]*dT*d[5mC]*d[5mC]*dA*dG*dG*dA*e[5mC]*eA*eA*e[5mC]*e[5mC]) [compound 416474]”, “416426 (antisense eA*eG*e[5mC]*e[5mC]*e[5mC]*dA*dA*dG*d[5mC]*dA*dG*dA*dA*dG*dG*e[5mC]*eA*eG*eA*eG) [compound 416426]” is lower in “% Inhibition of human Factor 7 mRNA levels” value: 40% for the first, 34% for the second.

Going from “416487 (antisense eG*e[5mC]*eA*eG*eG*dT*dG*d[5mC]*dT*d[5mC]*d[5mC]*d[5mC]*dA*dG*dG*eG*eT*e[5mC]*eT*e[5mC]) [compound 416487]” to “416510 (antisense eG*eA*e[5mC]*eG*eA*dG*dG*d[5mC]*d[5mC]*dT*d[5mC]*dA*dG*dG*dT*eG*eG*eA*e[5mC]*eG) [compound 416510]”, the “% Inhibition of human Factor 7 mRNA levels” value falls from 39% to 30%.

Compared with “416476 (antisense eG*e[5mC]*eA*eG*eG*dT*dG*dG*dG*d[5mC]*dT*dT*dG*dG*d[5mC]*eT*eG*eA*eA*eG) [compound 416476]”, “416496 (antisense e[5mC]*eA*eA*e[5mC]*eA*d[5mC]*dT*dT*d[5mC]*dA*dA*dA*dT*dA*d[5mC]*eG*eA*eT*e[5mC]*eT) [compound 416496]” is lower in “% Inhibition of human Factor 7 mRNA levels” value: 58% for the first, 0% for the second.

Same assay, conditions: HepB3 cells; gapmers (5-10-5, 3-14-3, 2-13-5 MOE) targeted to nucleobases 4868 to 4899 of SEQ ID NO: 1

In the case of “422146 (antisense eA*eG*e[5mC]*e[5mC]*e[5mC]*dG*dA*dG*dT*dT*d[5mC]*dT*dG*d[5mC]*dA*eG*eG*eA*eG*e[5mC]) [compound 422146]”, the “% Inhibition of human Factor 7 mRNA levels” value is reported as 58%.

Same assay, conditions: HepB3 cells; gapmers targeted to nucleobases 11830 to 11869 of SEQ ID NO: 1 (Table 9)

Compared with “422107 (antisense eG*e[5mC]*eT*eG*eG*d[5mC]*dT*dG*dA*dG*dG*dA*dG*dA*d[5mC]*eA*eA*eT*eG*eG) [compound 422107]”, “422101 (antisense eT*eG*eA*eG*eG*dA*dG*dA*d[5mC]*dA*dA*dT*dG*dG*dT*e[5mC]*eA*eG*eG*eG) [compound 422101]” is higher in “% Inhibition of human Factor 7 mRNA levels” value: 36% for the first, 42% for the second.

Going from “422099 (antisense eA*eG*eG*eA*eG*dA*d[5mC]*dA*dA*dT*dG*dG*dT*d[5mC]*dA*eG*eG*eG*e[5mC]*eT) [compound 422099]” to “422167 (antisense eG*eA*eG*dG*dA*dG*dA*d[5mC]*dA*dA*dT*dG*dG*dT*d[5mC]*dA*dG*eG*eG*e[5mC]) [compound 422167]”, the “% Inhibition of human Factor 7 mRNA levels” value rises from 48% to 53%.

First: 422234 (antisense eT*eG*dG*dT*d[5mC]*dA*dG*dG*dG*d[5mC]*dT*dG*dG*dT*dT*eT*eT*eG*eG*eA) [compound 422234]
Second: 422242 (antisense eG*eG*dA*dG*dA*d[5mC]*dA*dA*dT*dG*dG*dT*d[5mC]*dA*dG*eG*eG*e[5mC]*eT*eG) [compound 422242]
The “% Inhibition of human Factor 7 mRNA levels” value of the first is lower: 62% for the first, 64% for the second.

Compared with “422104 (antisense eG*eG*e[5mC]*eT*eG*dA*dG*dG*dA*dG*dA*d[5mC]*dA*dA*dT*eG*eG*eT*e[5mC]*eA) [compound 422104]”, “422248 (antisense eG*eG*d[5mC]*dT*dG*dA*dG*dG*dA*dG*dA*d[5mC]*dA*dA*dT*eG*eG*eT*e[5mC]*eA) [compound 422248]” is higher in “% Inhibition of human Factor 7 mRNA levels” value: 59% for the first, 60% for the second.

With “422161 (antisense eA*e[5mC]*eA*dA*dT*dG*dG*dT*d[5mC]*dA*dG*dG*dG*d[5mC]*dT*dG*dG*eT*eT*eT) [compound 422161]” the “% Inhibition of human Factor 7 mRNA levels” value was 53%.

Same assay, conditions: HepB3 cells; gapmers targeted to nucleobases 13760 to 13789 of SEQ ID NO: 1 (Table 10)

Going from “422175 (antisense e[5mC]*eG*e[5mC]*d[5mC]*dG*dG*d[5mC]*dT*d[5mC]*dT*dG*d[5mC]*dT*d[5mC]*dA*dT*d[5mC]*e[5mC]*e[5mC]*e[5mC]) [compound 422175]” to “422260 (antisense eG*e[5mC]*dG*d[5mC]*d[5mC]*dA*d[5mC]*d[5mC]*d[5mC]*dG*d[5mC]*d[5mC]*dG*dG*d[5mC]*eT*e[5mC]*eT*eG*e[5mC]) [compound 422260]”, the “% Inhibition of human Factor 7 mRNA levels” value falls from 69% to 56%.

For “422111 (antisense e[5mC]*eA*e[5mC]*e[5mC]*e[5mC]*dG*d[5mC]*d[5mC]*dG*dG*d[5mC]*dT*d[5mC]*dT*dG*e[5mC]*eT*e[5mC]*eA*eT) [compound 422111]”, the “% Inhibition of human Factor 7 mRNA levels” value was 37%.

Same assay, conditions: HepB3 cells; gapmers targeted to nucleobases 15188 to 15211 of SEQ ID NO: 1 (Table 13)

Going from “422085 (antisense eG*e[5mC]*eA*eT*eG*dG*dT*dG*dA*dT*dG*d[5mC]*dT*dT*d[5mC]*eT*eG*eA*eA*eT) [compound 422085]” to “422226 (antisense e[5mC]*eA*dT*dG*dG*dT*dG*dA*dT*dG*d[5mC]*dT*dT*d[5mC]*dT*eG*eA*eA*eT*eT) [compound 422226]”, the “% Inhibition of human Factor 7 mRNA levels” value falls from 70% to 41%.
